Values after ≈ are worked out from the molar mass of the structure shown. Where two headings read alike, the source gives them in different places.
How the values were obtained:
Clostridium perfringens = test: microbe, parasite or virus in culture; assay type: cell-based, C. perfringens ATCC 13124; settings: for MIC: Clostridium perfringens, ATCC13124
M. hyopneumoniae = test: MIC, liquid dilution method, Mycoplasma hyopneumoniae; settings: Mesomycoplasma hyopneumoniae
M. pneumoniae = test: MIC, liquid dilution method, Mycoplasma pneumoniae; settings: Mycoplasmoides pneumoniae
mice spleen cells [1] = test: Suppression of reaction of mice spleen cells to Concanavalin A, in vitro (MTT); assay type: cell-based, BDF1 mice; settings: for inhibition at 0.312 µg/mL: 312 ng/ml; for inhibition at 0.625 µg/mL: 625 ng/ml
Protocol: (§1) To each well of 96 well microtiter plate were added 5×10^5 spleen cells of BDF1 mice suspended in 0.1 ml of RPMI 1640 medium supplemented with 10% bovine fetus serum (supplemented with 2 mM sodium hydrogen carbonate, 50 Units/ml of penicillin, 50 μg/ml of streptomycin, and 5×10^-5 M of 2-mercaptoethanol), and then, 5 μg/ml of Concanavalin A (Con A) or 10 μg/ml of lypopolysaccaride (LPS) and various concentrations of test substance, of which final volume was adjusted to 0.2 ml. Test substances were dissolved in dimethylsulfoxide (DMSO), diluted with RPMI 1640 stated above, and added to the wells so that final concentration of the substances becomes less than 10000 ng/ml. The 96-well microtiter plates were cultured at 37° C. for 3 days in an incubator which was maintained at the humidity of 100%, 5% of carbon dioxide and 95% of air. After cultivation is completed, […] of 6 mg/ml solution of MTT {3-(4,5-dimethylthiazol-2yl)-2,5 diphenyltetrazoliumbromide} (Sigma) is added to each well, which is cultured at 37° C. for […] under the same conditions. After cultivation is completed, formazan formed is dissolved by adding 50 μl of a solution of 20% dodecyl sodium sulfonate (SDS) in 0.02N hydrochloric acid and kept standing at 37° C. for 24 hours. The absorbance (OD) of the formazan which was produced in proportion to the number of alive cells, was determined by using immunoreader equipped with 570 nm filter (see The Journal of Immunological Methods, Vol.65, 55-63, 1983).
(§2) Cell growth inhibition rate and IC50 value were calculated according to the correlation between the concentration and the absorbance for each substance.

Serpulina hyodysenteriae = test: MIC, agar dilution method, anaerobic, Serpulina hyodysenteriae; assay type: cell-based, S. hyodysenteriae ATCC 27164; settings: for MIC: Brachyspira hyodysenteriae, ATCC27164
mice spleen cells [2] = test: Suppression of reaction of mice spleen cells to lypopolysaccaride (LPS), in vitro (MTT); assay type: cell-based, BDF1 mice; settings: for inhibition at 0.312 µg/mL: 312 ng/ml; for inhibition at 0.625 µg/mL: 625 ng/ml
Protocol: as §1, §2

Eimeria tenella = test: Growth inhibition activities to avian coccidium in primary chicken kidney cells; assay type: cell-based; settings: for minimal effective concentration: Eimeria tenella
Protocol: The kidneys of SPF new born chicken was sterilely removed, which was treated with trypsin and the resultant primary kidney cells were cultured in 24-well plate. Monolayer culture after cultured for 3 days was treated simultaneously with compounds adjusted to predetermined concentration and sporozoit obtained by artificial excystation, which was cultured a 40° C. Premature and mature schizonts were observed under microscope, and the growth inhibition activities (suppression rate) for each treatment group were calculated at a proportion of the number of schizonts for the sporozoit-inoculated, compound-untreated control group (100%).

S. aureus = test: MIC, agar dilution method, S. aureus; assay type: cell-based; settings: Staphylococcus aureus, FDA209P; S. aureus FDA 209P
[3] = Cytotoxicity to primary chicken kidney culture cells; assay type: cell-based; settings: primary chicken kidney cells
[4] = test system: primary kidney culture cells; test: as above; assay type: cell-based; settings: at the same concentration
Mycoplasma = test: MIC to Mycoplasmas (summary in words); assay type: cell-based
M. gallisepticum [5] = test: MIC, liquid dilution method, Mycoplasma gallisepticum; settings: Mycoplasmoides gallisepticum
Branhamella catarrhalis = test: MIC, Branhamella catarrhalis; assay type: cell-based; settings: Moraxella catarrhalis; B. catarrhalis A 25238
Protocol: Thus, sensitivity-disc medium (Nissui) was used as a sensitivity determination medium, to which about 1 μl of 10^6 CFU/ml of the bacterial suspension was inoculated.

M. gallisepticum [6] = test: In vivo evaluation test for M. gallisepticum in chickens (air-sac lesions); settings: 6 chickens tested
Aspergillus fumigatus = test: Antifungal activity, micro-liquid dilution method, Aspergillus fumigatus; assay type: cell-based, Aspergillus fumigatus strain MA; settings: 30° C.; for Antifungal activities: IC50: 24 hours; for IC50: Aspergillus fumigatus, 24 h, read-out: Antifungal activities: IC50
Protocol: (§3) Antifungal activities of the compounds to Candida albicans (strain Ca-15) and Asperilhm fumigatus (strain MA), representative pathogenic fungi, were determined by micro-liquid dilution method using 96-well microplates. A fungal suspension stored under freezing was adjusted to 1×1 O^5 CFU/ml by medium, of which 100 μl portions were charged into each well. The compound of the present invention was dissolved in dimethylsulfoxide (DMSO). Using the resultant solution, 2-fold dilution series were prepared together with the fungal suspension charged into the wells. YNB medium and RPMI medium were used. After cultured for 24 hours at 30° C., evaluation was performed by detecting the turbidity (wave length: 595 nm) using microplate reader.

Candida albicans = test: Antifungal activity, micro-liquid dilution method, Candida albicans; assay type: cell-based, Candida albicans strain Ca-15; settings: 30° C.; for Antifungal activities: IC50: 24 hours; for IC50: Candida albicans, 24 h, read-out: Antifungal activities: IC50
Protocol: as §3

E. avium = test: MIC, agar dilution method, E. avium; settings: Enterococcus avium
C. trachmatis = test: MIC, C. trachmatis; assay type: cell-based; settings: C. trachmatis D/UW-3/CX
[7] = Mus musculus, 72 h, Con A, read-out: Suppression rate
[8] = Mus musculus, 72 h, LPS, read-out: Suppression rate
[9] = more than 80% of suppression rate regarded as effective, read-out: Effective dose (growth inhibition)
[10] = read-out: Concentrations showing growth inhibition effects

SMILES | activity to Clostridium perflingens (Clostridium perfringens) | MIC (Clostridium perfringens) [µg/mL] | MIC (M. hyopneumoniae) [µg/mL] | MIC (M. pneumoniae) [µg/mL] | suppression of the reaction to Con A of spleen cells (mice spleen cells [1]) | inhibition at 0.312 µg/mL (mice spleen cells [1]; [7]) [%] | inhibition at 0.625 µg/mL (mice spleen cells [1]; [7]) [%] | IC50 (mice spleen cells [1]; Mus musculus, Con A) [µg/mL] | activity to Serpulina (Treponema) hyodysenteriae (Serpulina hyodysenteriae) | MIC (Serpulina hyodysenteriae) [µg/mL] | suppression of the reaction to LPS of spleen cells (mice spleen cells [2]) | inhibition at 0.312 µg/mL (mice spleen cells [2]; [8]) [%] | inhibition at 0.625 µg/mL (mice spleen cells [2]; [8]) [%] | IC50 (mice spleen cells [2]; Mus musculus, LPS) [µg/mL] | growth inhibition activities (Eimeria tenella) | minimal effective concentration (Eimeria tenella; [9]) [µg/mL] | minimal effective concentration (Eimeria tenella; [10]) [µg/mL] | MCC [3] [µg/mL] | cytotoxicity to the primary kidney culture cells [4] | MIC (M. gallisepticum [5]) [µg/mL] | also measured
CCCCCc1cccc(OC)c1C1=NC(C2SCC(C(O)C(C)(C)C3=NC(C)(C(=O)O)CS3)N2C)CS1 (stereo not drawn) [Compound 7] | showed the activity | 0.1 (≈ 0.172 µM) | 0.1 (≈ 0.172 µM) | 0.1 (≈ 0.172 µM) | suppressed | 98 | 101 | 0.129 (≈ 0.222 µM) | showed the activity | 1.56 (≈ 2.69 µM) | suppressed | 98.6 | 102 | 0.084 (≈ 0.145 µM) | strong growth inhibition activities | 0.156 | 156 | 10 | did not show any cytotoxicity | 1.56 (≈ 2.69 µM) | inhibition at 0.039 µg/mL (mice spleen cells [1]; Mus musculus, 72 h, Con A, 39 ng/ml, read-out: Suppression rate): 10%; inhibition at 0.078 µg/mL (mice spleen cells [1]; Mus musculus, 72 h, Con A, 78 ng/ml, read-out: Suppression rate): 16.5%; inhibition at 0.156 µg/mL (mice spleen cells [1]; Mus musculus, 72 h, Con A, 156 ng/ml, read-out: Suppression rate): 60.7%; inhibition at 0.039 µg/mL (mice spleen cells [2]; Mus musculus, 72 h, LPS, 39 ng/ml, read-out: Suppression rate): 17.2%; inhibition at 0.078 µg/mL (mice spleen cells [2]; Mus musculus, 72 h, LPS, 78 ng/ml, read-out: Suppression rate): 42.5%; inhibition at 0.156 µg/mL (mice spleen cells [2]; Mus musculus, 72 h, LPS, 156 ng/ml, read-out: Suppression rate): 80%; MIC (S. aureus): 1.56 µg/mL (≈ 2.69 µM); MICs to Mycoplasmas (Mycoplasma): low MICs
CCCCCc1cccc(O)c1C1=NC(C2SCC(C(O)C(C)(C)C3=NC(C)(C(=O)O)CS3)N2C)CS1 (stereo not drawn) [Compound 9] |  |  | 0.025 (≈ 0.0442 µM) | 0.00625 (≈ 0.011 µM) |  |  |  |  |  |  |  |  |  |  |  |  |  |  |  | 0.2 (≈ 0.353 µM) | MIC (Branhamella catarrhalis): 3.13 µg/mL (≈ 5.53 µM); air-sac lesions (the number of chickens): (+) slight (M. gallisepticum [6]; 25 mg/kg × 1, orally): 0; air-sac lesions (the number of chickens): (++-+++) moderate to severe (M. gallisepticum [6]; 25 mg/kg × 1, orally): 2; air-sac lesions (the number of chickens): (-) non (M. gallisepticum [6]; 25 mg/kg × 1, orally): 4; number of chickens having lesions (M. gallisepticum [6]; 25 mg/kg × 1, orally): 2; air-sac lesions (the number of chickens): (+) slight (M. gallisepticum [6]; 50 mg/kg × 1, orally): 1; air-sac lesions (the number of chickens): (++-+++) moderate to severe (M. gallisepticum [6]; 50 mg/kg × 1, orally): 1; air-sac lesions (the number of chickens): (-) non (M. gallisepticum [6]; 50 mg/kg × 1, orally): 4; number of chickens having lesions (M. gallisepticum [6]; 50 mg/kg × 1, orally): 2; air-sac lesions (the number of chickens): (+) slight (M. gallisepticum [6]; 100 mg/kg × 1, orally): 0; air-sac lesions (the number of chickens): (++-+++) moderate to severe (M. gallisepticum [6]; 100 mg/kg × 1, orally): 1; air-sac lesions (the number of chickens): (-) non (M. gallisepticum [6]; 100 mg/kg × 1, orally): 5; number of chickens having lesions (M. gallisepticum [6]; 100 mg/kg × 1, orally): 1; Antifungal activities: IC50 (Aspergillus fumigatus; RPMI medium): 0.2 µg/mL; Antifungal activities: IC50 (Aspergillus fumigatus; YNB medium): 3.2 µg/mL; Antifungal activities: IC50 (Candida albicans; RPMI medium): 1.6 µg/mL; Antifungal activities: IC50 (Candida albicans; YNB medium): 6.3 µg/mL; MIC (E. avium): 1.56 µg/mL (≈ 2.76 µM); MIC (C. trachmatis): 16 µg/mL (≈ 28.3 µM)
CCCCCc1cccc(O)c1C1=NC(C2SCC(C(OCOC)C(C)(C)C3=NC(C)(C(=O)OCOC)CS3)N2C)CS1 (stereo not drawn) [Compound 19] |  |  | 1.56 (≈ 2.39 µM) | 0.39 (≈ 0.596 µM) |  |  |  |  |  |  |  |  |  |  | strong growth inhibition activities | 0.156 | 156 | 10 | did not show any cytotoxicity | 6.25 (≈ 9.56 µM) | 
CCCCCc1cccc(O)c1C1=NC(C2SCC(C(O)C(C)(C)C3=NC(C)(C(=O)OCOC)CS3)N2C)CS1 (stereo not drawn) [Compound 20] | showed the activity | 3.13 (≈ 5.13 µM) | 0.025 (≈ 0.041 µM) | ≤ 0.00625 | suppressed | 0 | 102 | 0.506 (≈ 0.83 µM) | showed the activity | 1.56 (≈ 2.56 µM) | suppressed | 2.1 | 98.8 | 0.38 (≈ 0.623 µM) |  | 0.625 |  | > 10 |  | 0.1 (≈ 0.164 µM) | inhibition at 1.25 µg/mL (mice spleen cells [1]; Mus musculus, 72 h, Con A, 1250 ng/ml, read-out: Suppression rate): 101%; inhibition at 2.5 µg/mL (mice spleen cells [1]; Mus musculus, 72 h, Con A, 2500 ng/ml, read-out: Suppression rate): 101%; inhibition at 1.25 µg/mL (mice spleen cells [2]; Mus musculus, 72 h, LPS, 1250 ng/ml, read-out: Suppression rate): 98.2%; inhibition at 2.5 µg/mL (mice spleen cells [2]; Mus musculus, 72 h, LPS, 2500 ng/ml, read-out: Suppression rate): 96.3%; IC50 (Aspergillus fumigatus; RPMI medium): > 100 µg/mL; IC50 (Aspergillus fumigatus; YNB medium): > 100 µg/mL; MICs to Mycoplasmas (Mycoplasma): low MICs; IC50 (Candida albicans; RPMI medium): 3.2 µg/mL (≈ 5.25 µM); IC50 (Candida albicans; YNB medium): > 100 µg/mL

Source: US6004952A, “Micacocidin derivatives” (Shinogi & Co., Ltd., priority 1996, dated 1999)
